{"source": "ChEMBL document CHEMBL1134158", "about": "“Antimycobacterial in vitro activity of cobalt(II) isonicotinoylhydrazone complexes. Part 10” (2001)", "system": "Mycobacterium tuberculosis", "assay": "In vitro anti-mycobacterial activity against Mycobacterium tuberculosis H37Rv", "format": "functional"}
{"smiles": "NNC(=O)c1ccncc1", "note": "[ISONIAZID]", "values": [{"measurement": "MIC", "result": 0.025, "unit": "µg/mL"}]}
{"smiles": "CO[C@H]1/C=C/O[C@@]2(C)Oc3c(C)c(O)c4c(O)c(c(/C=N/N5CCN(C)CC5)c(O)c4c3C2=O)NC(=O)/C(C)=C\\C=C\\[C@H](C)[C@H](O)[C@@H](C)[C@@H](O)[C@@H](C)[C@H](OC(C)=O)[C@@H]1C", "note": "[RIFAMPIN]", "values": [{"measurement": "MIC", "result": 0.06, "unit": "µg/mL"}]}
